In ChEMBL document CHEMBL4138148, “Discovery of novel pyrrolo-pyridine/pyrimidine derivatives bearing pyridazinone moiety as c-Met kinase inhibitors” (Eur J Med Chem, 2017):

How the values were obtained:
Test in all cases: cells
[1] = test system: MCF7; details: Homo sapiens, MCF7, 72 h
Description: Cytotoxicity against human MCF7 cells assessed as reduction in cell viability after 72 hrs by MTT assay

[2] = test system: A549; details: Homo sapiens, A549, 72 h
Description: Cytotoxicity against human A549 cells assessed as reduction in cell viability after 72 hrs by MTT assay

[3] = test system: HepG2; details: Homo sapiens, HepG2, 72 h
Description: Cytotoxicity against human HepG2 cells assessed as reduction in cell viability after 72 hrs by MTT assay

[4] = test system: PC-3; details: Homo sapiens, PC-3, 72 h
Description: Cytotoxicity against human PC3 cells assessed as reduction in cell viability after 72 hrs by MTT assay

Compound | IC50 [1] | IC50 [2] | IC50 [3] | IC50 [4]
Cc1cc(=O)n(-c2ccc(Br)cc2F)nc1C(=O)Nc1ccc(Oc2ncnc3[nH]ccc23)c(F)c1 | 26.6 µM | 6.12 µM | 32 µM | 13.3 µM
O=C(Nc1ccc(Oc2ccnc3[nH]ccc23)c(F)c1)c1nn(-c2ccc(Br)cc2)ccc1=O | 11.6 µM | > 60 µM | 68 µM | 40.8 µM
O=C(Nc1ccc(Oc2ccnc3[nH]ccc23)cc1)c1nn(-c2ccc(Br)cc2)ccc1=O | 7.89 µM | 6.24 µM | 4.28 µM | 8.04 µM
Cn1ccc2c(Oc3ccc(NC(=O)c4nn(-c5ccc(Br)cc5)ccc4=O)cc3)ccnc21 | 16.2 µM | 59.4 µM | 39.2 µM | 23 µM
O=C(Nc1ccc(Oc2ccnc3[nH]ccc23)cc1)c1nn(-c2ccccc2)ccc1=O | 15.6 µM | 10.5 µM | 17.8 µM | 15 µM
Cn1ccc2c(Oc3ccc(NC(=O)c4nn(-c5ccc(Cl)c(F)c5)ccc4=O)cc3F)ccnc21 | 16.6 µM | > 60 µM | 22.1 µM | 17.9 µM
Cc1cc(=O)n(-c2ccc(Br)cc2F)nc1C(=O)Nc1ccc(Oc2ncnc3c2ccn3C)c(F)c1 | > 60 µM | 14.4 µM | > 60 µM | 6.67 µM
O=C(Nc1ccc(Oc2ccnc3[nH]ccc23)cc1)c1nn(-c2ccc(Br)cc2F)ccc1=O | 17.9 µM | 26.1 µM | 46.4 µM | 12.8 µM
O=C(Nc1ccc(Oc2ccnc3[nH]ccc23)cc1)c1nn(-c2ccc(Cl)cc2)ccc1=O | 10.6 µM | 25.1 µM | 19.5 µM | 32.4 µM
Cc1cc(=O)n(-c2ccc(F)cc2)nc1C(=O)Nc1ccc(Oc2ncnc3[nH]ccc23)c(F)c1 | 24.5 µM | 42.4 µM | 12.8 µM | 17.3 µM
Cc1cc(=O)n(-c2ccccc2OC(F)(F)F)nc1C(=O)Nc1ccc(Oc2ncnc3[nH]ccc23)cc1 | 32 µM | 16.2 µM | 22.8 µM | 22.5 µM
Cc1cc(=O)n(-c2ccccc2Cl)nc1C(=O)Nc1ccc(Oc2ncnc3c2ccn3C)cc1 | 4.13 µM | 5.12 µM | 11.2 µM | 16.4 µM
Cc1cc(=O)n(-c2cccc(F)c2)nc1C(=O)Nc1ccc(Oc2ncnc3[nH]ccc23)cc1 | 9.67 µM | 34.8 µM | 3.18 µM | 14.6 µM
Cn1ccc2c(Oc3ccc(NC(=O)c4nn(-c5ccccc5)ccc4=O)cc3F)ccnc21 | > 60 µM | > 60 µM | > 60 µM | > 60 µM
Cn1ccc2c(Oc3ccc(NC(=O)c4nn(-c5ccc(Cl)c(F)c5)ccc4=O)cc3)ccnc21 | 16.8 µM | > 60 µM | > 60 µM | 32.7 µM
Cn1ccc2c(Oc3ccc(NC(=O)c4nn(-c5ccc(Cl)cc5)ccc4=O)cc3)ccnc21 | > 60 µM | > 60 µM | > 60 µM | > 60 µM
Cc1ccc(-n2nc(C(=O)Nc3ccc(Oc4ncnc5c4ccn5C)c(F)c3)c(C)cc2=O)cc1 | > 60 µM | > 60 µM | > 60 µM | 50.5 µM
Cc1cc(=O)n(-c2cccc(F)c2)nc1C(=O)Nc1ccc(Oc2ncnc3[nH]ccc23)c(F)c1 | 32 µM | 31.4 µM | 23.1 µM | 6.68 µM
O=C(Nc1ccc(Oc2ccnc3[nH]ccc23)c(F)c1)c1nn(-c2ccc(Cl)c(C(F)(F)F)c2)ccc1=O | 11.6 µM | 13.4 µM | 11.9 µM | 5.5 µM
COc1ccc(-n2ccc(=O)c(C(=O)Nc3ccc(Oc4ccnc5c4ccn5C)c(F)c3)n2)cc1 | > 60 µM | > 60 µM | > 60 µM | > 60 µM
Cc1cc(=O)n(-c2cccc(C(F)(F)F)c2)nc1C(=O)Nc1ccc(Oc2ncnc3[nH]ccc23)cc1 | 4.56 µM | 7.57 µM | 9.47 µM | 3.46 µM
